In US20100234390A1, “NOVEL COMPOUND AND THEIR USE” (priority 2007, published 2010):

Key:
Experiment in all cases: Agar dilution MIC
Conditions in all cases: 35° C., 16-20 hours
S. aureus ATCC 43300 = format: cell-based, Staphylococcus aureus
Procedure: (§1) Briefly, the compounds of invention were weighed, dissolved in dimethyl sulfoxide, serially two fold diluted in the same solvent and then incorporated into molten Mueller Hinton Agar (MHA) in a petridish just before solidification, with each petridish containing a different concentration of a compound.
(§2) The bacterial inoculum was prepared by picking 3 to 5 well isolated bacterial colonies with the same morphological appearance from an 18-24 hours old culture with an inoculating loop, transferring the growth to a tube containing 3 mL of normal saline and adjusting the turbidity of the saline suspension to 0.5 Mc Farland Turbidity Standard equivalent to a bacterial population of 1.5×10^8 colony forming units (CFU) per mL of suspension. The suspension was diluted 1:10 in saline (i.e. 0.5 mL suspension 4.5 mL saline) to get a bacterial population of 1.5×10^7 CFU/mL as inoculum.
(§3) The inoculated petridishes were incubated at 35° C. in an ambient atmosphere for 16-20 hours.

S. aureus MRO 00048 = format: cell-based, Staphylococcus aureus
Procedure: as §1, §2, §3

S. aureus MRO 00030 = format: cell-based, Staphylococcus aureus
Procedure: as §1, §2, §3

S. aureus MRO 00059 = format: cell-based, Staphylococcus aureus
Procedure: as §1, §2, §3

S. aureus MRO 002053 = format: cell-based, Staphylococcus aureus
Procedure: as §1, §2, §3

S. aureus MRO 0001 = format: cell-based, Staphylococcus aureus
Procedure: as §1, §2, §3

S. aureus MRO 0003 = format: cell-based, Staphylococcus aureus
Procedure: as §1, §2, §3

S. aureus ATCC 29213 = format: cell-based, Staphylococcus aureus
Procedure: as §1, §2, §3

S. aureus MRO 00013 = format: cell-based, Staphylococcus aureus
Procedure: as §1, §2, §3

S. aureus MRO 00055 = format: cell-based, Staphylococcus aureus
Procedure: as §1, §2, §3

E. faecalis ATCC 29212 = format: cell-based, Enterococcus faecalis
Procedure: as §1, §2, §3

E. faecalis ATCC 51299 = format: cell-based, Enterococcus faecalis
Procedure: as §1, §2, §3

E. faecalis MRO 04050 = format: cell-based, Enterococcus faecalis
Procedure: as §1, §2, §3

E. faecalis MRO 04205 = format: cell-based, Enterococcus faecalis
Procedure: as §1, §2, §3

E. faecalis MRO 04035 = format: cell-based, Enterococcus faecalis
Procedure: as §1, §2, §3

E. faecium MRO 04037 = format: cell-based, Enterococcus faecium
Procedure: as §1, §2, §3

E. faecium MRO 04038 = format: cell-based, Enterococcus faecium
Procedure: as §1, §2, §3

E. faecium MRO 04198 = format: cell-based, Enterococcus faecium
Procedure: as §1, §2, §3

E. faecium ATCC 700221 = format: cell-based, Enterococcus faecium
Procedure: as §1, §2, §3

S. epidermidis MRO 02095 = format: cell-based
Procedure: as §1, §2, §3

[1] = system: S. haemolyticus MRO 02064; format: cell-based
Procedure: as §1, §2, §3

[2] = system: S. epidermidis MRO 002046; format: cell-based
Procedure: as §1, §2, §3

[3] = system: S. saprophyticus MRO 02003; format: cell-based
Procedure: as §1, §2, §3

S. epidermidis MRO 02045 = format: cell-based
Procedure: as §1, §2, §3

S. epidermidis MRO 02002 = format: cell-based
Procedure: as §1, §2, §3

[4] = system: M. catarrhalis ATCC 43627; format: cell-based, Moraxella catarrhalis
Procedure: as §1, §2, §3

[5] = system: M. catarrhalis ATCC 43617; format: cell-based, Moraxella catarrhalis
Procedure: as §1, §2, §3

[6] = system: M. catarrhalis ATCC 43628; format: cell-based, Moraxella catarrhalis
Procedure: as §1, §2, §3

## COC(=S)NC[C@H]1CN(c2ccc(N3CCN(C(=O)c4ccc(N)nc4)CC3)c(F)c2)C(=O)O1 [Example 37, (S)—O-Methyl(3-(4-(4-(6-aminonicotinoyl)piperazin-1-yl)-3-fluorophenyl)-2-oxooxazolidin-5-yl)methylcarbamothioate]
S. aureus ATCC 43300
  Antimicrobial Screening (MIC): 0.5 µg/mL
S. aureus MRO 00048
  Antimicrobial Screening (MIC): 0.25 µg/mL
S. aureus MRO 00030
  Antimicrobial Screening (MIC): 0.5 µg/mL
S. aureus MRO 00059
  Antimicrobial Screening (MIC): 0.5 µg/mL
S. aureus MRO 002053
  Antimicrobial Screening (MIC): 0.25 µg/mL
S. aureus MRO 0001
  Antimicrobial Screening (MIC): 0.25 µg/mL
S. aureus MRO 0003
  Antimicrobial Screening (MIC): 0.5 µg/mL
S. aureus ATCC 29213
  Antimicrobial Screening (MIC): 0.5 µg/mL
S. aureus MRO 00013
  Antimicrobial Screening (MIC): 0.5 µg/mL
S. aureus MRO 00055
  Antimicrobial Screening (MIC): 0.5 µg/mL
E. faecalis ATCC 29212
  Antimicrobial Screening (MIC): 0.25 µg/mL
E. faecalis ATCC 51299
  Antimicrobial Screening (MIC): 0.25 µg/mL
E. faecalis MRO 04050
  Antimicrobial Screening (MIC): 0.25 µg/mL
E. faecalis MRO 04205
  Antimicrobial Screening (MIC): 0.25 µg/mL
E. faecalis MRO 04035
  Antimicrobial Screening (MIC): 0.25 µg/mL
E. faecium MRO 04037
  Antimicrobial Screening (MIC): 0.25 µg/mL
E. faecium MRO 04038
  Antimicrobial Screening (MIC): 0.25 µg/mL
E. faecium MRO 04198
  Antimicrobial Screening (MIC): 0.25 µg/mL
E. faecium ATCC 700221
  Antimicrobial Screening (MIC): 0.25 µg/mL
S. epidermidis MRO 02095
  Antimicrobial Screening (MIC): 0.5 µg/mL
[1]
  Antimicrobial Screening (MIC): 0.25 µg/mL
[2]
  Antimicrobial Screening (MIC): 0.5 µg/mL
[3]
  Antimicrobial Screening (MIC): 0.5 µg/mL
S. epidermidis MRO 02045
  Antimicrobial Screening (MIC): 0.25 µg/mL
S. epidermidis MRO 02002
  Antimicrobial Screening (MIC): 0.5 µg/mL
[4]
  Antimicrobial Screening (MIC): 2 µg/mL
[5]
  Antimicrobial Screening (MIC): 1 µg/mL
[6]
  Antimicrobial Screening (MIC): 1 µg/mL
